Results as given in US20050256085A1, “Fungicidal mixtures” (priority 2002, published 2005).
Read-outs that look alike come from different tables or passages of the source.

Columns and labels:
[1] = tested on: Phytophthora infestans; type: in vivo; details: tomato leaves, infected next day, assessed after 6 days
[2] = tested on: Plasmopara viticola; experiment: Persistency against Peronospora of grapevines caused by Plasmopara viticola; type: in vivo; details: grapevine leaves, inoculated 3 days after spraying

| Structure (SMILES) | Efficacy in % of the untreated control ([1]; 1.9 ppm in the spray liquor) [%] | Efficacy in % of the untreated control ([1]; 3.75 ppm in the spray liquor) [%] | Efficacy in % of the untreated control ([1]; 7.5 ppm in the spray liquor) [%] | Efficacy in % of the untreated control ([2]; 1.9 ppm in the spray liquor) [%] | Efficacy in % of the untreated control ([2]; 3.75 ppm in the spray liquor) [%] | Efficacy in % of the untreated control ([1]; 0.19 ppm in the spray liquor) [%] | Efficacy in % of the untreated control ([1]; 0.375 ppm in the spray liquor) [%] | Efficacy in % of the untreated control ([1]; 0.75 ppm in the spray liquor) [%] | Efficacy in % of the untreated control ([1]; 1.5 ppm in the spray liquor) [%] | Efficacy in % of the untreated control ([1]; 3 ppm in the spray liquor) [%] | Efficacy in % of the untreated control ([2]; 0.19 ppm in the spray liquor) [%] | Efficacy in % of the untreated control ([2]; 0.375 ppm in the spray liquor) [%] | Efficacy in % of the untreated control ([2]; 1.5 ppm in the spray liquor) [%] | Efficacy in % of the untreated control ([2]; 3 ppm in the spray liquor) [%] |
| --- | --- | --- | --- | --- | --- | --- | --- | --- | --- | --- | --- | --- | --- | --- |
| N#Cc1sc2c(=O)c3ccccc3c(=O)c=2sc1C#N [II, dithianon] | 0 | 0 | 0 | 48 | 58 |  |  |  |  |  |  |  |  |  |
| CC(C)OC(=O)N[C@H](C(=O)N[C@H](C)c1nc2ccc(F)cc2s1)C(C)C [Ia] |  |  |  |  |  | 56 | 67 | 78 | 83 | 89 | 48 | 58 | 79 | 84 |
